# Measurements taken from PMC5039532, “Design and Synthesis of Analogues of Marine Natural Product Galaxamide, an N-methylated Cyclic Pentapeptide, as Potential Anti-Tumor Agent in Vitro” (Marine Drugs, 2016).
# Where a SMILES comes first, the peptide text is derived from it. [ ]: non-standard residue; d: D form. NMeL = CN[C@@H](CC(C)C)C(=O)O
# Tests used:
# SMMC-7721 cells [1] = experiment: Cell apoptotic analysis, annexin V/PI staining, flow cytometry; format: cell-based, human; details: 4, 8 and 16 μg/mL, 48 h, annexin V/PI double staining
# Procedure: The apoptotic cells were quantified using an Annexin V-FITC (Sigma-Aldrich, St. Louis, MO, USA) cell apoptosis assay kit according to instruction provided with kit. In brief, about 1.5 × 10^5 cells were plated in 6-well plates and treated with galaxamide and representative analogues (4, 8, 16 μg/mL) for 48 h. The cells were resuspended in […] binding buffer. Afterward, […] annexin V-fluorescein isothiocyanate (FITC) was added and then incubated in darkness at room temperature for 10 min. The cells were again resuspended in […] binding buffer and stained with […] PI. The prepared cells were then analyzed using a flow cytometry (Coulter Epics Elite, Miami, FL, USA). The cells in the FITC-positive and PI-negative fraction were regarded as apoptotic cells.
# SMMC-7721 cells [2] = experiment: Cell morphological observation, Hoechst33342 staining; format: cell-based, human; details: 4, 8 and 16 μg/mL, 48 h, fluorescence microscopy
# Procedure: Exponentially growing SMMC-7721 cells (1 × 10^5 cells/mL) were incubated for 48 h with 4, 8, 16 μg/mL of galaxamide and representative analogues. Apoptotic nuclear morphology was visualized by the Hoechsst33342 staining technique. Cells were fixed with 3.7% of paraformaldehyde for 10 min at room temperature and washed three times with PBS. After fixation, cells were stained using Hoechsst33342 (10 μg/mL) and incubated in the darkness for 10 min. After washing three times with PBS, cells were visualized using fluorescence microscope.
# [3] = system: hepatocellular carcinoma SMMC-7721 cells; format: cell-based, human; details: 48 h
# Procedure: (§1) Lung cancer A549, drug-resistant lung cancer A549-DPP, human hepatocellular carcinoma HepG2 and hepatocellular carcinoma SMMC-7721 cells obtained from the China cell bank of the Institute of Biochemistry and were cultured in DMEM culture medium (DMEM, Corning, NY, USA) containing 10% fetal bovine serum (FBS, Hyclone, Logan, UT, USA), 1% penicillin-streptomycin and an antifungal agent in a 5% CO2 humidified atmosphere at 37 °C. The culture medium was replaced once in a day. Trypsin digestion method was adopted for cell propagation. Upon reaching 80%–90% confluence, the cells were rinsed twice with PBS. A certain amount of 0.25% trypsin digestion solution was then added and maintained for 3–5 min at 37 °C. Afterward, DMEM culture medium containing 10% fetal bovine serum was added to terminate the digestion. The cells were then blown well to form single cell suspensions.
# (§2) The cell viability was determined by measuring the ability of cells to transform MTT (Genview, Houston, TX, USA) to a purple formazan dye. The cells were seeded in 96-well tissue culture plates at 2.5 × 10^3 cells/well for 24 h. The cells were then incubated with galaxamide and its analogues for 48 h. After incubation, 20 μL/well of MTT solution (5 mg/mL phosphate buffered saline) were added and incubated for 5 h. The medium was aspirated and replaced with 100 μL/well of DMSO to dissolve the formazan salt. The color intensity of the formazan solution, which reflects the cell growth condition, was measured at 570 nm using a microplate spectrophotometer (SpectroAma™ 250, Winooski, VT, USA).
# [4] = system: drug-resistant lung cancer cell line A549/DPP; format: cell-based, human; details: 48 h
# Procedure: as §1, §2
# [5] = system: Lung cancer cell line A549; format: cell-based, human; details: 48 h
# Procedure: as §1, §2
# [6] = system: human hepatocellular carcinoma HepG2; format: cell-based; details: 48 h
# Procedure: as §1, §2
# SMMC-7721 cells [7] = experiment: Cell cycle analysis by PI staining and flow cytometry; format: cell-based, human; details: 4, 8 and 16 μg/mL, 48 h
# Procedure: SMMC-7721 cells with the density of about 1.5 × 10^5 were incubated with galaxamide and representative analogues (4, 8, 16 μg/mL) for 48 h. Afterwards, collected cells were washed twice with PBS and centrifugation (1000 rpm, 5 min), then fixed using 70% ethanol for 12 h at 4 °C. Ethanol was removed by centrifugation (2000 rpm, 5 min), and the cells were washed twice with PBS. Cells were then resuspended in […] PI and kept at 37 °C for 15 min. The cell cycle was analyzed by flow cytometry measuring the amount of PI-labeled DNA in fixed cells.
IC50 Value SMMC-7721 [3],IC50 Value A549-DPP [4],IC50 Value A549 [5],IC50 Value HepG2 [6],Structure (SMILES),induction of apoptosis (in words) (SMMC-7721 cells [1]),morphological changes (in words) (SMMC-7721 cells [2]),cell-cycle arrest (in words) (SMMC-7721 cells [7])
1.44 µg/mL,12.22 µg/mL,9.4 µg/mL,6.41 µg/mL,"CC(C)C[C@@H]1NC(=O)[C@H](CC(C)C)NC(=O)[C@@H](Cc2ccccc2)NC(=O)[C@H](CC(C)C)N(C)C(=O)[C@@H](CC(C)C)NC1=O [Compound 22, cyclo(D-Phe-Leu-Leu-D-Leu-N-Me-Leu)]",induced SMMC-7721 cell apoptosis in dose-dependent manner,resulted in cell detachment from cell culture plates,arresting the cell cycle in the G0/G1 phase
6.85 µg/mL,20.43 µg/mL,5.18 µg/mL,22.88 µg/mL,"CC(C)C[C@@H]1NC(=O)[C@@H](Cc2ccccc2)NC(=O)[C@@H](CC(C)C)N(C)C(=O)[C@@H](CC(C)C)NC(=O)[C@@H](CC(C)C)NC1=O [Compound 25, cyclo(D-Phe-Leu-D-Leu-D-Leu-D-N-Me-Leu)]",–,–,–
6.65 µg/mL,11.33 µg/mL,4.27 µg/mL,7.12 µg/mL,"CC(C)C[C@@H]1NC(=O)[C@H](CC(C)C)N(C)C(=O)[C@@H](Cc2ccccc2)NC(=O)[C@@H](CC(C)C)N(C)C(=O)[C@H](CC(C)C)NC1=O [Compound 26, cyclo(D-Phe-N-Me-Leu-Leu-Leu-D-N-Me-Leu)]",–,–,–
–,–,–,–,"CC(C)C[C@@H]1NC(=O)[C@H](CC(C)C)N(C)C(=O)[C@H](CC(C)C)NC(=O)[C@H](CC(C)C)N(C)C(=O)[C@H](CC(C)C)NC1=O [Galaxamide, galaxamide] (cyclo(LL[NMeL]L[NMeL]))",–,resulted in cell detachment from cell culture plates,arresting the cell cycle in the G0/G1 phase
